We go through 18 compounds from ChEMBL document CHEMBL1129562, “Non-peptide cholecystokinin-B/gastrin receptor antagonists based on bicyclic, heteroaromatic skeletons” (J Med Chem, 1996).

The Ki is the equilibrium dissociation constant of an inhibitor or competing ligand from its target. Low values mean a stronger hold on the target, high ones a looser hold on the target. The term inhibition denotes the change of the read-out against control, counted positive when it falls. High values mean a strong effect, low ones a weak effect. By Inhibition is commonly meant the change of the read-out against control, counted positive when it falls.

Test [1] deals with T1, Gastrin/cholecystokinin type B receptor (Mus musculus, UniProt P56481).
T1 sequence (P56481 whole entry): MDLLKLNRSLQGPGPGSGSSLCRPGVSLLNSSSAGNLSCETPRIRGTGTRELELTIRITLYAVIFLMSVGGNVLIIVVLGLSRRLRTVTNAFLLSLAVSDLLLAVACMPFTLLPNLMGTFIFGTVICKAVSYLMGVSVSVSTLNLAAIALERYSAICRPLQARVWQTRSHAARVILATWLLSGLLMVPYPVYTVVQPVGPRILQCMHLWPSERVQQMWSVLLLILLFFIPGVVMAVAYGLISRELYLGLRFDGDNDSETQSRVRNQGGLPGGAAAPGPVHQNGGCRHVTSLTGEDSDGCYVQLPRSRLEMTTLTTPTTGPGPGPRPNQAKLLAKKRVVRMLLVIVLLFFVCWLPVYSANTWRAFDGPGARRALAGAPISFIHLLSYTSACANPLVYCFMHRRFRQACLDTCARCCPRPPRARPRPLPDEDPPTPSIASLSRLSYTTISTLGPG
In words: In vitro inhibitory activity against Cholecystokinin type B receptor using [125I]BH-CCK-8S as radioligand in mouse cortical membranes. In kind it is cell membranes.

Test [2] deals with T2, Cholecystokinin receptor type A (Cavia porcellus, UniProt Q63931).
T2 sequence (Q63931 whole entry): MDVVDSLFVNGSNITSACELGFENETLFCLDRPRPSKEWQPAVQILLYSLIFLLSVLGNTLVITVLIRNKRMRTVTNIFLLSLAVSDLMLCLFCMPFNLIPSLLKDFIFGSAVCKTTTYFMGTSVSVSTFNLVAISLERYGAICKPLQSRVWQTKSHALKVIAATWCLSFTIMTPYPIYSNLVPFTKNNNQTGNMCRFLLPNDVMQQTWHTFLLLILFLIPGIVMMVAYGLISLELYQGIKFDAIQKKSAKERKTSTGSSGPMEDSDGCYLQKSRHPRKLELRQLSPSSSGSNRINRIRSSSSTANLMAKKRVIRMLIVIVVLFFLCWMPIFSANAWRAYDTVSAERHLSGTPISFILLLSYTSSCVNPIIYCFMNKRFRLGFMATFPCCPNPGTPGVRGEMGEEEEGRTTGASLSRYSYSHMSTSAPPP
In words: In vitro inhibitory activity against Cholecystokinin type A receptor using [125I]BH-CCK-8S as radioligand in guinea pig pancreatic cells.

Test [3] has as its target T3, Gastrin/cholecystokinin type B receptor (Rattus norvegicus) (UniProt P30553).
T3 sequence (whole entry): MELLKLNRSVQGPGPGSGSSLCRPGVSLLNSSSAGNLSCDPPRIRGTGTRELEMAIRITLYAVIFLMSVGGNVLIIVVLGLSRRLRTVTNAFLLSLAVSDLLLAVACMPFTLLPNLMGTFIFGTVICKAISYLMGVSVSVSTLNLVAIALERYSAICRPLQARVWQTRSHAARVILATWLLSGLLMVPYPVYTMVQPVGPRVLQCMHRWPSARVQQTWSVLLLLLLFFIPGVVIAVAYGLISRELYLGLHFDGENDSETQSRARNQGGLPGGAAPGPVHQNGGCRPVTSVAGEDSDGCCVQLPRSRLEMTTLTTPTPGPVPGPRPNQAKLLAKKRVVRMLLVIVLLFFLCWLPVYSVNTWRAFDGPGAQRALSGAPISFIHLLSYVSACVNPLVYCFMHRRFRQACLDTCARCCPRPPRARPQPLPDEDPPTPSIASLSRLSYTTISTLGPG
Briefly: Intravenous activity against Cholecystokinin type B receptor in Gosh and Schild rat at a dsoe of 0.025 umol/kg (in vivo). It counts as functional, organism-based.

Another test relates to Canis familiaris. In words: Intravenous activity against CCKB/Gastrin antagonist in gastric fistula dog at dose 0.1 uM/kg (in vivo). It counts as functional, Canis lupus familiaris, Stomach.

Consider `O=C(NCC12CC3CC(CC(C3)C1)C2)c1cc2ccccc2cc1C(=O)N1CCC[C@@H]1C(=O)O`, for which the Ki in test [1] is 339 nM; in test [2], 3550 nM.

Take `O=C(O)c1cc(NC(=O)[C@H](Cc2ccccc2)NC(=O)c2cc3ccsc3cc2C(=O)NCC23CC4CC(CC(C4)C2)C3)cc(C(=O)O)c1`: the Ki was 1.23 nM in test [1] and 2240 nM in test [2].

`O=C(O)c1cc(NC(=O)[C@H](Cc2ccccc2)NC(=O)c2cc3[nH]cnc3cc2C(=O)NCC23CC4CC(CC(C4)C2)C3)cc(C(=O)O)c1` yielded an inhibition in test [3] of 61%. In addition, the Ki in test [1] was 5.25 nM; in test [2] it was 1480 nM.

Consider `O=C(O)c1cc2ccccc2cc1C(=O)NCC12CC3CC(CC(C3)C1)C2`, for which the figures for the inhibition constant (Ki) in test [1] and in test [2] were 2880 nM and 11700 nM, respectively.

Consider `O=C(NCC1CCCCCC1)c1cc2nc[nH]c2cc1C(=O)N[C@@H](Cc1ccccc1F)C(=O)Nc1cc(-c2nn[nH]n2)cc(-c2nn[nH]n2)c1`, for which the Ki in test [1] was 3.89 nM; in test [2], 912 nM.

With `O=C(NCC12CC3CC(CC(C3)C1)C2)C1C2c3ccccc3C(c3ccccc32)C1C(=O)N1CCC[C@@H]1C(=O)O` (stereo partly drawn), the Ki is 891 nM in test [1] and 8130 nM in test [2].

Take `O=C(O)c1cc(NC(=O)[C@H](Cc2ccccc2)NC(=O)c2cc3ccoc3cc2C(=O)NCC23CC4CC(CC(C4)C2)C3)cc(C(=O)O)c1`: the figures for the inhibitory constant (Ki) in test [1] and in test [2] were 5.37 nM and 3800 nM, respectively.

In the case of `O=C(O)c1cc(NC(=O)[C@H](Cc2ccccc2F)NC(=O)c2cc3[nH]cnc3cc2C(=O)NCC2CCCCCC2)cc(C(=O)O)c1`, the Ki in test [1] was 7.59 nM; in test [2] it was 7410 nM.

As for `O=C(O)c1cc(NC(=O)[C@H](Cc2ccccc2)NC(=O)c2cc3cc[nH]c3cc2C(=O)NCC2CCCCCC2)cc(C(=O)O)c1`, the figures for the Ki in test [1] and in test [2] were 15.1 nM and 3160 nM, respectively.

As to `O=C(O)c1cc(NC(=O)[C@H](Cc2ccccc2F)NC(=O)c2cc3[nH]cnc3cc2C(=O)NCC23CC4CC(CC(C4)C2)C3)cc(C(=O)O)c1`, the Ki in test [1] is 4.47 nM; in test [2], 2570 nM.

As for `O=C(O)c1cc(NC(=O)[C@H](Cc2ccccc2)NC(=O)c2cc3[nH]ccc3cc2C(=O)NCC23CC4CC(CC(C4)C2)C3)cc(C(=O)O)c1`, the Ki was 13.5 nM in test [1] and 3390 nM in test [2].

Regarding `O=C(O)c1cc(NC(=O)[C@H](Cc2ccccc2F)NC(=O)c2cc3cc[nH]c3cc2C(=O)NCC23CC4CC(CC(C4)C2)C3)cc(C(=O)O)c1`, the Ki in test [1] is 0.741 nM; in test [2], 3310 nM.

For `O=C(O)c1cc(NC(=O)[C@H](Cc2ccccc2)NC(=O)c2cc3cc[nH]c3cc2C(=O)NCC23CC4CC(CC(C4)C2)C3)cc(C(=O)O)c1`, the inhibition in test [3] amounted to 97%. The same compound showed an Inhibition in the test on Canis familiaris of 79%. Besides, the Ki was 1.1 nM in test [1] and 3630 nM in test [2].

For the compound `O=C(NCC12CC3CC(CC(C3)C1)C2)c1cc2nc[nH]c2cc1C(=O)N[C@@H](Cc1ccccc1)C(=O)Nc1cc(-c2nn[nH]n2)cc(-c2nn[nH]n2)c1`, the Ki is 4.07 nM in test [1] and 891 nM in test [2].

Consider `O=C(O)c1cc(NC(=O)[C@H](Cc2ccc(O)cc2)NC(=O)c2cc3[nH]cnc3cc2C(=O)NCC23CC4CC(CC(C4)C2)C3)cc(C(=O)O)c1`, for which, in test [2], affinity was put at a Ki of 2820 nM.

Take `O=C(O)C1C2c3ccccc3C(c3ccccc32)C1C(=O)NCC12CC3CC(CC(C3)C1)C2` (stereo not drawn): the Ki is 537 nM in test [1] and 8320 nM in test [2].

For `O=C(O)c1cc(NC(=O)[C@H](Cc2ccccc2)NC(=O)c2cc3ccccc3cc2C(=O)NCC23CC4CC(CC(C4)C2)C3)cc(C(=O)O)c1`, the values for the Ki in test [1] and in test [2] were 13.2 nM and 851 nM, respectively.

Take `O=C(NCC12CC3CC(CC(C3)C1)C2)c1cc2[nH]ccc2cc1C(=O)N[C@@H](Cc1ccccc1)C(=O)Nc1cc(-c2nn[nH]n2)cc(-c2nn[nH]n2)c1`: the Ki is 1.2 nM in test [1] and 1290 nM in test [2].
